Test system: purified porcine gastric mucin
Assay: Effect of muco-adhesive amino acid polymers on mucin gels (light microscopy)
Conditions: 5 mg/mL polymer, 4 μl mucin drop, 3 min to 50 min of contact
Protocol: (§1) FIG. 7 illustrates the effect of low or high molecular weight muco-adhesive polymers on mucin gels. A 4 μl drop of purified porcine gastric mucin was placed in a solution of poly-L-arginine (PLA, DP 11 corresponding to 1.9 kDa, 5 mg/mL), poly-L-lysine (PLL, DP 11 corresponding to 1.6 kDa, 5 mg/mL), or poly-L-lysine (PLL, DP 400 corresponding to 66 kDa, 5 mg/mL). The drop of mucin was observed under the microscope (10x objective). The three images are taken after 3 min, 12 min 30, and 50 min of contact.
as §1, with “Effect” for “FIG. 7 illustrates the effect”, “(PLA,” for “(PLA, DP 11 corresponding to”, “(PLL,” for “(PLL, DP 11 corresponding to”, “(PLL,” for “(PLL, DP 400 corresponding to”, “(10×” for “(10x”

Row | Substance | effect on mucin gel drop
1 | poly-L-lysine [PLL, 1.6 kDa] | clearly crosslinks the mucin in depth
2 | poly-L-lysine [PLL, 66 kDa, reference compound] | changes the structure of the mucins drop and compacts it significantly
3 | poly-L-arginine [PLA, 1.9 kDa] | clearly crosslinks the mucin in depth
